Results on 1 compound are retold here after paper PMC6267684, “Pharmacokinetic evaluation of the PNC disassembler metarrestin in wild-type and Pdx1-Cre;LSL-Kras^G12D/+;Tp53^R172H/+ (KPC) mice, a genetically engineered model of pancreatic cancer” (Cancer Chemotherapy and Pharmacology, 2018).

One data set concerns FOXA1 mRNA. Nature of the data set: FOXA1 mRNA expression in KPC tumors (RNA-seq, qRT-PCR). The settings on record: vs intratumor exposure. Type of data set: in vivo, KPC mice. The procedure:
Pancreas cancer tissues samples or adjacent, uninvolved normal pancreas from vehicle or metarrestin-treated KPC animals collected at 0, 3, and 9 h after last dose of 25 mg/kg metarrestin were homogenized in PureLink Lysis Buffer (PureLink RNA Mini Kit, ThermoFisher Scientific Waltham, MA) at 4 °C using a TissueLyser II bead mill (Qiagen, Valencia, CA, manufactured by Retsch, Newtown, PA). Total RNA was isolated using the Life Technologies PureLink® RNA Mini Kit, quantified on a NanoDrop 1000 spectrophotometer (ThermoFisher Scientific, Waltham, MA). […]
Total RNA libraries were prepared using the Illumina TruSeq® Stranded Total RNA LT (with Ribo-Zero™Human/Mouse/Rat) kit according the manufacturer’s instructions. […] Sequencing output ranged from 89 to 132 million reads per sample. Adapter trimming and base filtering was done using Trimmomatic software version 0.3, and the trimmed reads were aligned to mouse reference genome (GRCm38/mm10) and Ensembl annotation (version 70) using TopHat2 version 2.0.8.
A total of 450 ng of total RNA was used for single-strand complementary DNA synthesis using a SuperScript III First-Strand kit (Invitrogen, Carlsbad, CA). […] Reaction products were read in a Bio-Rad CFX96 Touch real-time PCR detection system (Bio-Rad Laboratories, Hercules, CA). […]

For the next data set, the system named is PNC in murine KPC tumors. Put plainly: PNC prevalence in KPC tumors (immunofluorescence with α-PTB1 antibodies). The class given is in vivo, KPC mice. As to conditions: after 14-day treatment with 25 mg/kg by oral gavage; untreated 38.2%. The procedure:
Blood samples were collected in K2EDTA tubes and plasma was harvested after centrifugation at 3000 rpm for 10 min. Tissue samples were weighed and flash-frozen for PK and PD mRNA expression analyses, embedded into OCT blocks for PNC determination and processed into FFPE blocks for histopathology assessment. All PK samples were stored at − 80 °C until analysis.
To establish a dose–response relationship between intratumor exposure levels of metarrestin and mechanism of action of the drug in vivo, we first confirmed the ability of metarrestin to suppress PNC structures in murine pancreatic KPC tumors. The prevalence of PNC bodies (expressed as the fraction of cells containing one or more PNCs) was 38.2% in untreated murine KPC tumors (Fig. 4a) which was similar to the PNC prevalence in the previously examined NOD/IL2 gamma (null) PANC1 metastasis model (35.1%) and higher than in cancer cell lines derived from primary pancreatic tumors (average ~ 23.5%). […]
Fig. 4 Intratumor metarrestin exposure correlates with PNC prevalence and mRNA expression levels of transcriptional regulators FOXA1 and FOXO6. a Metarrestin disassembles the peri-nucleolar compartment (PNC) in KPC tumors. […] Relative expression levels of FOXA1 and FOXO6 determined by qRT-PCR and normalized to reference genes. […]

A further data set deals with cleaved caspase 3. Put plainly: Cleaved caspase 3 immunohistochemistry in KPC tumors. The class given is in vivo, KPC mice. The settings on record: 25 mg/kg by gavage (PO) for 14 days. An excerpt:
To arrive at markers driven by metarrestin exposure, we next subjected untreated and metarrestin-treated KPC tumors and matched normal pancreata to unbiased gene expression profiling using RNA-sEq. […] Thus, FOXA1 and FOXO6 may provide leads for future predictive biomarker development, assist in determination of the minimally efficacious dose, and add additional insight into the mechanism of action of metarrestin.
Suppl. Fig. 7. […] Nuclear cleaved caspase 3 expression levels in metarrestin-treated KPC tumors. Representative images of cleaved caspase 3 immunohistochemistry in tumors of KPC mice treated with vehicle (top) or 25mg/kg metarrestin for 14 days (bottom). Images 20×, inset 40×.

The nature of data set [1]: Freeze-thaw stability in mouse plasma. Type of data set: in vitro ADME. The settings on record: after three freeze-thaw cycles. The procedure:
Bioanalytical method validation was performed in mouse plasma and mouse liver. The linear calibration range for metarrestin was 1.0–1000 ng/mL for plasma and 5.0–20,000 ng/g for liver homogenate. The lower limit of quantitation of the assay was 1.0 ng/mL in plasma and 5.0 ng/g in liver homogenate. The accuracy of calibration standards was between within 8% of the nominal values. Intra-assay variance and deviation from nominal values were calculated at low quality-control (LOQ, 1.0 ng/mL plasma and 5.0 ng/g liver), middle quality-control (MQC, 10.0 ng/mL and 500 ng/g), and high quality-control (HQC, 1000 ng/mL and 20,000 ng/g) levels for six replicates, each of the same analytical run (Suppl. Tables 1, 2). The variance of the QC samples (CV%, […]) ranged from 1.0 to 5.1% and the deviation was between 3 and 6% from nominal values. No endogenous interference was found at the retention time for metarrestin and internal standard as verified by testing control blank plasma and liver homogenate. Metarrestin was stable in mouse plasma after three freeze-thaw cycles.

In the case of `N=c1c2c(-c3ccccc3)c(-c3ccccc3)n(Cc3ccccc3)c2ncn1[C@H]1CC[C@H](O)CC1` [metarrestin, Trans-4-(7-benzyl-4-imino-5,6-diphenyl-4,7-dihydro-3H-pyrrolo[2,3-d]pyrimidin-3-yl) cyclohexanol], the “FOXA1 mRNA expression in KPC tumors” value in the data set on FOXA1 mRNA is recorded as “Dose-dependent normalization”. The “PNC prevalence in KPC tumors” value in the data set on PNC in murine KPC tumors amounted to 9.8%. Besides, the “cell death in KPC tumors (nuclear cleaved caspase 3)” value in the data set with cleaved caspase 3 is reported as “does not induce cell death”. Besides, the “stability in mouse plasma” value in data set [1] is on record as “stable”.
